In ChEMBL document CHEMBL3885861, “Open TG-GATES”:

Organism: Rattus norvegicus
Experiment: Open TG-GATES - Regimen: Single
Assay type: toxicity, organism-based, Sprague-Dawley
Parameters: regimen Single, gender Male, age 6 weeks
Conditions: in vivo, po, route gavage; for KIDNEY_L / KIDNEY_R / KIDNEY_TOTAL: tissue Kidney; for LIVER: tissue Liver; for ALP / ALT / CRE / DBIL / GLC / IP / K / Na / RALB / TBIL / TG / TP / gamma-GTP / BUN / PL: tissue Plasma
[1] = 0 mg/kg, 3 h, dose level Control
[2] = 0 mg/kg, 3 h, tissue Blood, dose level Control
[3] = 0 mg/kg, 6 h, dose level Control
[4] = 0 mg/kg, 6 h, tissue Blood, dose level Control
[5] = 0 mg/kg, 9 h, dose level Control
[6] = 0 mg/kg, 9 h, tissue Blood, dose level Control
[7] = 0 mg/kg, 24 h, dose level Control
[8] = 0 mg/kg, 24 h, tissue Blood, dose level Control
[9] = 3 mg/kg, 3 h, tissue Blood, dose level Low
[10] = 3 mg/kg, 6 h, tissue Blood, dose level Low
[11] = 3 mg/kg, 9 h, tissue Blood, dose level Low
[12] = 3 mg/kg, 24 h, tissue Blood, dose level Low

For CNCCC(Oc1ccc(C(F)(F)F)cc1)c1ccccc1.Cl (centres undefined) [FLUOXETINE HYDROCHLORIDE], the TERMINAL_BW [1] was 216.5 g, the Bas [2] was 0% and the Eos [2] was 1%. For the same compound, the Ht [2] was 41.2%, the Lym [2] was 72.6% and the MCHC [2] was 32.1%. It also gave a Ret [2] of 8.8%, a WBC [2] of 83.4 x10_2/uL and a KIDNEY_L [1] of 0.9 g. It also gave a KIDNEY_R [1] of 0.9 g, a KIDNEY_TOTAL [1] of 1.9 g and an LIVER [1] of 10.4 g. For the same compound, the ALP [1] was 1343.2 IU/L, the ALT [1] was 37.8 IU/L and the CRE [1] was 0.4 mg/dL. It also gave a DBIL [1] of 0.014 mg/dL, a GLC [1] of 198 mg/dL and an IP [1] of 10.1 mg/dL. For the same compound, the K [1] was 4.9 meq/L, the Na [1] was 138.2 meq/L and the RALB [1] was 4.1 g/dL. The TBIL [1] was 0.056 mg/dL, the TG [1] was 81.8 mg/dL and the TP [1] was 5.7 g/dL. It also gave a gamma-GTP [1] of 0.4 IU/L, a TERMINAL_BW [3] of 217.6 g and a Bas [4] of 0%. It also gave an Eos [4] of 1%, a Ht [4] of 41.1% and a Lym [4] of 72%. For the same compound, the MCHC [4] was 32.2%, the Ret [4] was 6.9% and the WBC [4] was 98.6 x10_2/uL. It also gave a KIDNEY_L [3] of 1 g, a KIDNEY_R [3] of 1 g and a KIDNEY_TOTAL [3] of 2.1 g. For the same compound, the LIVER [3] was 9.3 g, the ALP [3] was 1497.6 IU/L and the ALT [3] was 35 IU/L. It also gave a BUN [3] of 9.2 mg/dL, a CRE [3] of 0.4 mg/dL and a DBIL [3] of 0.008 mg/dL. For the same compound, the GLC [3] was 191 mg/dL, the IP [3] was 9.8 mg/dL and the K [3] was 5 meq/L. For the same compound, the Na [3] was 137.3 meq/L, the PL [3] was 131.2 mg/dL and the RALB [3] was 3.8 g/dL. It also gave a TBIL [3] of 0.048 mg/dL, a TG [3] of 45.8 mg/dL and a TP [3] of 5.3 g/dL. It also gave a gamma-GTP [3] of 1 IU/L, a TERMINAL_BW [5] of 216.1 g and a Bas [6] of 0%. It also gave an Eos [6] of 1%, a Ht [6] of 40.2% and a Lym [6] of 66.4%. It also gave an MCHC [6] of 32.5%, a Ret [6] of 8% and a WBC [6] of 106.4 x10_2/uL. It also gave a KIDNEY_L [5] of 1 g, a KIDNEY_R [5] of 1 g and a KIDNEY_TOTAL [5] of 2 g. The LIVER [5] was 9.2 g, the ALP [5] was 1190.2 IU/L and the ALT [5] was 28.6 IU/L. For the same compound, the CRE [5] was 0.4 mg/dL, the DBIL [5] was 0.01 mg/dL and the GLC [5] was 188.2 mg/dL. For the same compound, the IP [5] was 10.2 mg/dL, the K [5] was 5.1 meq/L and the Na [5] was 139 meq/L. The PL [5] was 139.8 mg/dL, the RALB [5] was 3.8 g/dL and the TBIL [5] was 0.042 mg/dL. For the same compound, the TG [5] was 63 mg/dL, the TP [5] was 5.3 g/dL and the gamma-GTP [5] was 0.4 IU/L. The TERMINAL_BW [7] was 234.5 g, the Bas [8] was 0% and the Eos [8] was 1%. It also gave a Ht [8] of 39.6%, a Lym [8] of 76.4% and an MCHC [8] of 32.7%. For the same compound, the Ret [8] was 7%, the WBC [8] was 121.8 x10_2/uL and the KIDNEY_L [7] was 1 g. For the same compound, the KIDNEY_R [7] was 1 g, the KIDNEY_TOTAL [7] was 2 g and the ALP [7] was 1409.4 IU/L. The ALT [7] was 36.6 IU/L, the CRE [7] was 0.4 mg/dL and the DBIL [7] was 0.012 mg/dL. For the same compound, the GLC [7] was 194.6 mg/dL, the IP [7] was 8.1 mg/dL and the K [7] was 5.1 meq/L. For the same compound, the Na [7] was 138.3 meq/L, the RALB [7] was 4 g/dL and the TBIL [7] was 0.036 mg/dL. The TG [7] was 133.6 mg/dL, the TP [7] was 5.6 g/dL and the gamma-GTP [7] was 1 IU/L. The TERMINAL_BW (3 mg/kg, 3 h, dose level Low) was 213 g, the Bas [9] was 0% and the Eos [9] was 1%. For the same compound, the Ht [9] was 41.8%, the Lym [9] was 76.6% and the MCHC [9] was 32.2%. The Ret [9] was 7.7%, the WBC [9] was 94.4 x10_2/uL and the KIDNEY_L (3 mg/kg, 3 h, dose level Low) was 0.9 g. For the same compound, the KIDNEY_R (3 mg/kg, 3 h, dose level Low) was 0.9 g, the KIDNEY_TOTAL (3 mg/kg, 3 h, dose level Low) was 1.8 g and the LIVER (3 mg/kg, 3 h, dose level Low) was 9.9 g. For the same compound, the ALP (3 mg/kg, 3 h, dose level Low) was 1490.4 IU/L, the ALT (3 mg/kg, 3 h, dose level Low) was 36.6 IU/L and the BUN (3 mg/kg, 3 h, dose level Low) was 11.4 mg/dL. It also gave a CRE (3 mg/kg, 3 h, dose level Low) of 0.4 mg/dL, a DBIL (3 mg/kg, 3 h, dose level Low) of 0.012 mg/dL and a GLC (3 mg/kg, 3 h, dose level Low) of 209 mg/dL. For the same compound, the IP (3 mg/kg, 3 h, dose level Low) was 10 mg/dL, the K (3 mg/kg, 3 h, dose level Low) was 4.5 meq/L and the Na (3 mg/kg, 3 h, dose level Low) was 138 meq/L. It also gave an RALB (3 mg/kg, 3 h, dose level Low) of 4.1 g/dL, a TBIL (3 mg/kg, 3 h, dose level Low) of 0.042 mg/dL and a TG (3 mg/kg, 3 h, dose level Low) of 85 mg/dL. The TP (3 mg/kg, 3 h, dose level Low) was 5.8 g/dL, the gamma-GTP (3 mg/kg, 3 h, dose level Low) was 0.2 IU/L and the TERMINAL_BW (3 mg/kg, 6 h, dose level Low) was 215.1 g. The Bas [10] was 0%, the Eos [10] was 1% and the Ht [10] was 41.2%. It also gave a Lym [10] of 67.4%, an MCH [10] of 22 pg and an MCHC [10] of 32.5%. It also gave a Ret [10] of 6.8%, a WBC [10] of 80.2 x10_2/uL and a KIDNEY_L (3 mg/kg, 6 h, dose level Low) of 0.9 g. The KIDNEY_R (3 mg/kg, 6 h, dose level Low) was 0.9 g, the KIDNEY_TOTAL (3 mg/kg, 6 h, dose level Low) was 1.8 g and the LIVER (3 mg/kg, 6 h, dose level Low) was 9.5 g. For the same compound, the ALP (3 mg/kg, 6 h, dose level Low) was 1275 IU/L, the ALT (3 mg/kg, 6 h, dose level Low) was 36.8 IU/L and the BUN (3 mg/kg, 6 h, dose level Low) was 10.2 mg/dL. The CRE (3 mg/kg, 6 h, dose level Low) was 0.4 mg/dL, the DBIL (3 mg/kg, 6 h, dose level Low) was 0.01 mg/dL and the GLC (3 mg/kg, 6 h, dose level Low) was 196 mg/dL. It also gave an IP (3 mg/kg, 6 h, dose level Low) of 10.3 mg/dL, a K (3 mg/kg, 6 h, dose level Low) of 4.8 meq/L and a Na (3 mg/kg, 6 h, dose level Low) of 137.7 meq/L. The RALB (3 mg/kg, 6 h, dose level Low) was 3.9 g/dL, the TBIL (3 mg/kg, 6 h, dose level Low) was 0.046 mg/dL and the TG (3 mg/kg, 6 h, dose level Low) was 100 mg/dL. It also gave a TP (3 mg/kg, 6 h, dose level Low) of 5.4 g/dL, a gamma-GTP (3 mg/kg, 6 h, dose level Low) of 1 IU/L and a TERMINAL_BW (3 mg/kg, 9 h, dose level Low) of 212.9 g. It also gave a Bas [11] of 0%, an Eos [11] of 1% and a Ht [11] of 40.1%. The Lym [11] was 69.2%, the MCHC [11] was 32.4% and the Ret [11] was 6.5%. For the same compound, the WBC [11] was 79.8 x10_2/uL, the KIDNEY_L (3 mg/kg, 9 h, dose level Low) was 0.9 g and the KIDNEY_R (3 mg/kg, 9 h, dose level Low) was 0.9 g. The KIDNEY_TOTAL (3 mg/kg, 9 h, dose level Low) was 1.8 g, the LIVER (3 mg/kg, 9 h, dose level Low) was 9.3 g and the ALP (3 mg/kg, 9 h, dose level Low) was 1183.8 IU/L. It also gave an ALT (3 mg/kg, 9 h, dose level Low) of 27.6 IU/L, a BUN (3 mg/kg, 9 h, dose level Low) of 11.2 mg/dL and a CRE (3 mg/kg, 9 h, dose level Low) of 0.4 mg/dL. The DBIL (3 mg/kg, 9 h, dose level Low) was 0.01 mg/dL, the GLC (3 mg/kg, 9 h, dose level Low) was 195.6 mg/dL and the IP (3 mg/kg, 9 h, dose level Low) was 10.2 mg/dL. The K (3 mg/kg, 9 h, dose level Low) was 5 meq/L, the Na (3 mg/kg, 9 h, dose level Low) was 139.1 meq/L and the PL (3 mg/kg, 9 h, dose level Low) was 136.8 mg/dL. The RALB (3 mg/kg, 9 h, dose level Low) was 3.9 g/dL, the TBIL (3 mg/kg, 9 h, dose level Low) was 0.036 mg/dL and the TG (3 mg/kg, 9 h, dose level Low) was 59.2 mg/dL. The TP (3 mg/kg, 9 h, dose level Low) was 5.5 g/dL, the gamma-GTP (3 mg/kg, 9 h, dose level Low) was 0.4 IU/L and the TERMINAL_BW (3 mg/kg, 24 h, dose level Low) was 223.4 g. The Bas [12] was 0%, the Eos [12] was 1% and the Ht [12] was 40.2%. The Lym [12] was 72%, the MCHC [12] was 32.5% and the Ret [12] was 7.1%. It also gave a WBC [12] of 86.8 x10_2/uL, a KIDNEY_L (3 mg/kg, 24 h, dose level Low) of 1 g and a KIDNEY_R (3 mg/kg, 24 h, dose level Low) of 1 g. For the same compound, the KIDNEY_TOTAL (3 mg/kg, 24 h, dose level Low) was 2 g, the LIVER (3 mg/kg, 24 h, dose level Low) was 10.5 g and the ALP (3 mg/kg, 24 h, dose level Low) was 1597.4 IU/L. For the same compound, the ALT (3 mg/kg, 24 h, dose level Low) was 35.6 IU/L, the BUN (3 mg/kg, 24 h, dose level Low) was 16.4 mg/dL and the CRE (3 mg/kg, 24 h, dose level Low) was 0.4 mg/dL. It also gave a DBIL (3 mg/kg, 24 h, dose level Low) of 0.01 mg/dL, a GLC (3 mg/kg, 24 h, dose level Low) of 194.8 mg/dL and an IP (3 mg/kg, 24 h, dose level Low) of 8 mg/dL. The K (3 mg/kg, 24 h, dose level Low) was 4.9 meq/L, the Na (3 mg/kg, 24 h, dose level Low) was 139.1 meq/L and the RALB (3 mg/kg, 24 h, dose level Low) was 3.9 g/dL. The TBIL (3 mg/kg, 24 h, dose level Low) was 0.034 mg/dL, the TG (3 mg/kg, 24 h, dose level Low) was 124.2 mg/dL and the TP (3 mg/kg, 24 h, dose level Low) was 5.6 g/dL. For the same compound, the gamma-GTP (3 mg/kg, 24 h, dose level Low) was 1 IU/L and the TERMINAL_BW (10 mg/kg, 3 h, dose level Middle) was 225.1 g.
